Data taken from patent publication US20260262643A1, “HERBICIDAL BENZOXAZINES” (FMC CORPORATION, priority 2022, published 2026).

Tests used:
barnyardgrass [1] = experiment: Test C postemergence; type: in vivo, Echinochloa crusgalli; settings: postemergence, 10 days
How it was run: (§1)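 Visual injury score, 0–100 (100 = complete control), taken 10 days after treatment relative to untreated controls. Pre: directed spray onto soil over sown seeds. Post: foliar spray at one- to two-leaf stage, 2–10 cm. Solvent/surfactant formulation; loam–sand soil; greenhouse.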

ryegrass, Italian [2] = experiment: Test C preemergence; type: in vivo, Lolium multiflorum; settings: preemergence, 0 to 100 scale (0 no effect, 100 complete control)
How it was run: as §1

corn [3] = experiment: Test C preemergence; type: in vivo, Zea mays; settings: preemergence, 0 to 100 scale (0 no effect, 100 complete control)
How it was run: as §1

rice = experiment: Test D flooded paddy test; type: in vivo, Oryza sativa; settings: 250 g ai/ha, applied to paddy water, visual rating after 13 to 14 days, scale 0 to 100 (0 no effect, 100 complete control)
How it was run: (§2)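 At the 2-leaf stage, floodwater 3 cm deep received the test compound; that depth persisted throughout. Plants scored visually 13 to 14 days on, 0 (no effect) to 100 (complete control), dash indicating no result.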

green foxtail [4] = experiment: Test C preemergence; type: in vivo, Setaria viridis; settings: preemergence, 0 to 100 scale (0 no effect, 100 complete control)
How it was run: as §1

ragweed [5] = experiment: Test C preemergence; type: in vivo, Ambrosia artemisiifolia; settings: preemergence, 0 to 100 scale (0 no effect, 100 complete control)
How it was run: as §1

wheat [6] = experiment: Test C postemergence; type: in vivo, Triticum aestivum; settings: postemergence, 10 days
How it was run: as §1

barnyardgrass [7] = experiment: Test D flooded paddy test; type: in vivo, Echinochloa crus-galli; settings: 250 g ai/ha, applied to paddy water, visual rating after 13 to 14 days, scale 0 to 100 (0 no effect, 100 complete control)
How it was run: as §2

blackgrass [8] = experiment: Test C postemergence; type: in vivo, Alopecurus myosuroides; settings: postemergence, 10 days
How it was run: as §1

corn [9] = experiment: Test C postemergence; type: in vivo, Zea mays; settings: postemergence, 10 days
How it was run: as §1

ducksalad = experiment: Test D flooded paddy test; type: in vivo, Heteranthera limosa; settings: 250 g ai/ha, applied to paddy water, visual rating after 13 to 14 days, scale 0 to 100 (0 no effect, 100 complete control)
How it was run: as §2

kochia [10] = experiment: Test C postemergence; type: in vivo, Bassia scoparia; settings: postemergence, 10 days
How it was run: as §1

soybean [11] = experiment: Test C preemergence; type: in vivo, Glycine max; settings: preemergence, 0 to 100 scale (0 no effect, 100 complete control)
How it was run: as §1

blackgrass [12] = experiment: Test C preemergence; type: in vivo, Alopecurus myosuroides; settings: preemergence, 0 to 100 scale (0 no effect, 100 complete control)
How it was run: as §1

ryegrass, Italian [13] = experiment: Test C postemergence; type: in vivo, Lolium multiflorum; settings: postemergence, 10 days
How it was run: as §1

green foxtail [14] = experiment: Test C postemergence; type: in vivo, Setaria viridis; settings: postemergence, 10 days
How it was run: as §1

pigweed, palmer [15] = experiment: Test C postemergence; type: in vivo, Amaranthus palmeri; settings: postemergence, 10 days
How it was run: as §1

oat, wild [16] = experiment: Test C preemergence; type: in vivo, Avena fatua; settings: preemergence, 0 to 100 scale (0 no effect, 100 complete control)
How it was run: as §1

barnyardgrass [17] = experiment: Test C preemergence; type: in vivo, Echinochloa crusgalli; settings: preemergence, 0 to 100 scale (0 no effect, 100 complete control)
How it was run: as §1

galium = experiment: Test C postemergence; type: in vivo, Galium aparine; settings: postemergence, 10 days
How it was run: as §1

horseweed = experiment: Test C postemergence; type: in vivo, Erigeron canadensis; settings: postemergence, 10 days
How it was run: as §1

sedge, umbrella = experiment: Test D flooded paddy test; type: in vivo, Cyperus difformis; settings: 250 g ai/ha, applied to paddy water, visual rating after 13 to 14 days, scale 0 to 100 (0 no effect, 100 complete control)
How it was run: as §2

ragweed [18] = experiment: Test C postemergence; type: in vivo, Ambrosia artemisiifolia; settings: postemergence, 10 days
How it was run: as §1

pigweed, palmer [19] = experiment: Test C preemergence; type: in vivo, Amaranthus palmeri; settings: preemergence, 0 to 100 scale (0 no effect, 100 complete control)
How it was run: as §1

kochia [20] = experiment: Test C preemergence; type: in vivo, Bassia scoparia; settings: preemergence, 0 to 100 scale (0 no effect, 100 complete control)
How it was run: as §1

wheat [21] = experiment: Test C preemergence; type: in vivo, Triticum aestivum; settings: preemergence, 0 to 100 scale (0 no effect, 100 complete control)
How it was run: as §1

oat, wild [22] = experiment: Test C postemergence; type: in vivo, Avena fatua; settings: postemergence, 10 days
How it was run: as §1

soybean [23] = experiment: Test C postemergence; type: in vivo, Glycine max; settings: postemergence, 10 days
How it was run: as §1

[24] = 125 g ai/ha, 0 to 100 scale, 0 no effect, 100 complete control
[25] = 500 g ai/ha, 0 to 100 scale (0 no effect, 100 complete control)

Cc1cccc2c1O[C@@H](C)CN2C(=O)c1cccc(-n2cnc(N(C)S(C)(=O)=O)n2)c1 [Compound 299]
Plant response rating, Barnyardgrass (barnyardgrass [1]; [24]): 10 | Plant response rating, Barnyardgrass (barnyardgrass [1]; [25]): 50 | Ryegrass, Italian plant response rating (ryegrass, Italian [2]; 500 g ai/ha): 90 | Ryegrass, Italian plant response rating (ryegrass, Italian [2]; Test C, 125 g ai/ha): 70 | Corn plant response rating (corn [3]; 500 g ai/ha): 30 | Corn plant response rating (corn [3]; Test C, 125 g ai/ha): 0 | Plant response rating, Rice (Flood) (rice): 0 | Foxtail, Green plant response rating (green foxtail [4]; 500 g ai/ha): 100 | Foxtail, Green plant response rating (green foxtail [4]; Test C, 125 g ai/ha): 60 | Ragweed plant response rating (ragweed [5]; 500 g ai/ha): 100 | Ragweed plant response rating (ragweed [5]; Test C, 125 g ai/ha): 70 | Plant response rating, Wheat (wheat [6]; [24]): 20 | Plant response rating, Wheat (wheat [6]; [25]): 40 | Plant response rating, Barnyardgrass (Flood) (barnyardgrass [7]): 0 | Plant response rating, Blackgrass (blackgrass [8]; [24]): 20 | Plant response rating, Blackgrass (blackgrass [8]; [25]): 90 | Plant response rating, Corn (corn [9]; [24]): 10 | Plant response rating, Corn (corn [9]; [25]): 20 | Plant response rating, Ducksalad (Flood) (ducksalad): 95 | Plant response rating, Kochia (kochia [10]; [24]): 10 | Plant response rating, Kochia (kochia [10]; [25]): 70 | Soybean plant response rating (soybean [11]; 500 g ai/ha): 0 | Soybean plant response rating (soybean [11]; Test C, 125 g ai/ha): 0 | Blackgrass plant response rating (blackgrass [12]; 500 g ai/ha): 70 | Blackgrass plant response rating (blackgrass [12]; Test C, 125 g ai/ha): 30 | Plant response rating, Ryegrass, Italian (ryegrass, Italian [13]; [24]): 70 | Plant response rating, Ryegrass, Italian (ryegrass, Italian [13]; [25]): 90 | Plant response rating, Foxtail, Green (green foxtail [14]; [24]): 10 | Plant response rating, Foxtail, Green (green foxtail [14]; [25]): 40 | Plant response rating, Pigweed, Palmer (pigweed, palmer [15]; [24]): 40 | Plant response rating, Pigweed, Palmer (pigweed, palmer [15]; [25]): 60 | Oat, Wild plant response rating (oat, wild [16]; 500 g ai/ha): 90 | Oat, Wild plant response rating (oat, wild [16]; Test C, 125 g ai/ha): 0 | Barnyardgrass plant response rating (barnyardgrass [17]; 500 g ai/ha): 80 | Barnyardgrass plant response rating (barnyardgrass [17]; Test C, 125 g ai/ha): 10 | Plant response rating, Galium (galium; [24]): 80 | Plant response rating, Galium (galium; [25]): 90 | Plant response rating, Horseweed (horseweed; [24]): 10 | Plant response rating, Horseweed (horseweed; [25]): 30 | Plant response rating, Sedge, Umbrella (Flood) (sedge, umbrella): 25 | Plant response rating, Ragweed (ragweed [18]; [24]): 0 | Plant response rating, Ragweed (ragweed [18]; [25]): 0 | Pigweed, Palmer plant response rating (pigweed, palmer [19]; 500 g ai/ha): 90 | Pigweed, Palmer plant response rating (pigweed, palmer [19]; Test C, 125 g ai/ha): 50 | Kochia plant response rating (kochia [20]; 500 g ai/ha): 80 | Kochia plant response rating (kochia [20]; Test C, 125 g ai/ha): 0 | Wheat plant response rating (wheat [21]; 500 g ai/ha): 30 | Wheat plant response rating (wheat [21]; Test C, 125 g ai/ha): 0 | Plant response rating, Oat, Wild (oat, wild [22]; [24]): 20 | Plant response rating, Oat, Wild (oat, wild [22]; [25]): 60 | Plant response rating, Soybean (soybean [23]; [24]): 60 | Plant response rating, Soybean (soybean [23]; [25]): 100
